The values below come from article PMC10253522 (2023).

In this experiment the test system is aptamer beacon probe (ABP) (DNA, aptamer) ATTCTCTCACCTGGGGGAGTATTGCGGAGGAAGGTAT
Kind of experiment: FAM-Dabcyl fluorescence quenching and fluorescence melting. The settings on record: 100 mM NaCl, 5 mM MgCl2, 20 mM Tris-HCl pH 7.4, 23 and 40 °C.

`Nc1ccn([C@@H]2O[C@H](COP(=O)(O)OP(=O)(O)OP(=O)(O)O)[C@@H](O)[C@H]2O)c(=O)n1`: the binding result (625 µM CTP, no complex in melting, residual quenching) is “weak”. Regarding `Nc1nc2c(ncn2[C@@H]2O[C@H](COP(=O)(O)OP(=O)(O)OP(=O)(O)O)[C@@H](O)[C@H]2O)c(=O)[nH]1`, for the setting “625 µM GTP, no complex in melting, residual quenching”, the binding entry is listed as “weak”. As to `Nc1ncnc2c1ncn2[C@@H]1O[C@H](COP(=O)(O)OP(=O)(O)OP(=O)(O)O)[C@@H](O)[C@H]1O`, the binding entry (133 nM probe, up to 625 µM ATP) is “yes”.

For the compound `O=c1ccn([C@@H]2O[C@H](COP(=O)(O)OP(=O)(O)OP(=O)(O)O)[C@@H](O)[C@H]2O)c(=O)[nH]1`, the binding entry (625 µM UTP, no complex in melting, residual quenching) was “weak”.
